Biological target: T1, CCXCKR2 receptor (Homo sapiens, UniProt P25106)
T1 construct: expressed in transfected cells; host or cells: MDA-MB-435S transfected with pcDNA3.1(+)-hRDC1 and/or MCF-7 (endogenous receptor)
Assay: Displacement of 125I-labeled SDF-1 from the CCXCKR2 receptor on MCF-7 and/or CCXCKR2-transfected MDA-MB-435S cells (radioligand binding, filtration)
Settings: not given

T1 sequence (P25106 whole entry): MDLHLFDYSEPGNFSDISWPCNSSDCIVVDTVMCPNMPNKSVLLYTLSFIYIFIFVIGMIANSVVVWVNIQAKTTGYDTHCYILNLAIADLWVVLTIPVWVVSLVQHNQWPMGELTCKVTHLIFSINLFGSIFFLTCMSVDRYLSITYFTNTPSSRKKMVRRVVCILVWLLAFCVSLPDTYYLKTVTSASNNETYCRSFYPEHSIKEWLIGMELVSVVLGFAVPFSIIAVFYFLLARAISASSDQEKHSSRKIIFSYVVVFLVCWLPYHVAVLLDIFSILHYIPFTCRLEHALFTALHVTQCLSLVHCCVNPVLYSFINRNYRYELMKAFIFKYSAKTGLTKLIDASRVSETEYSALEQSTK

| SMILES | IC50 [nM] |
| --- | --- |
| Cc1cccc(Cn2cc(C(=O)c3cccc(C)c3)c(=O)c3ccccc32)c1 [Example 20] | < 100 |

Same assay, conditions: 125I SDF-1, 3 hr at 4° C., MCF-7 and/or MDA-MB-435S cells; read-out: Activity (concentration displacing at least 50% of the SDF-1 from the CCXCKR2 receptor)

| SMILES | IC50 [nM] |
| --- | --- |
| COc1ccc(C(=O)c2cn(Cc3cccc(Br)n3)c3ccccc3c2=O)c(C)c1 [Example 178] | < 100 |
| Cc1cccc(Cn2cc(C(=O)c3cnc(C)c(C)c3)c(=O)c3cc(F)ccc32)c1 [Example 55] | < 100 |
| Cc1ccc(C(=O)c2cn(Cc3cnn[nH]3)c3ccccc3c2=O)cc1C [Example 48] | 100 to 500 |
| O=C(c1cccnc1)c1cn(Cc2ccccc2F)c2ccccc2c1=O [Example 33] | 500 to 20000 |
| COc1ccc(C(=O)c2cn(Cc3cccc(Br)n3)c3ccccc3c2=O)cc1OC [Example 140] | < 100 |
| Cc1cccc(Cn2cc(C(=O)c3ccc(N(C)C)cc3)c(=O)c3ccccc32)n1 [Example 158] | < 100 |
| CN(C)c1cccc(C(=O)c2cn(Cc3cccc(Br)n3)c3ccccc3c2=O)c1 [Example 97] | < 100 |
| O=C(c1cnccn1)c1cn(Cc2ccccc2F)c2ccccc2c1=O [Example 61] | 500 to 20000 |
| Cc1ccc(C(=O)c2cn(Cc3ccc(C(F)(F)F)o3)c3ccccc3c2=O)cc1C [Example 65] | < 100 |
| COc1ncc(C(=O)c2cn(Cc3cccc(Cl)c3)c3ccccc3c2=O)cc1C [Example 240] | < 100 |
| CN(C)c1ccc(C(=O)c2cn(Cc3cccc(Br)n3)c3ccccc3c2=O)cn1 [Example 197] | < 100 |
| Cc1ccc(C(=O)c2cn(Cc3ccccn3)c3ccccc3c2=O)cc1C [Example 8] | < 100 |
| Cc1ccc(C(=O)c2cn(Cc3nnsc3Cl)c3ccccc3c2=O)cc1C [Example 28, 1-(5-Chloro-[1,2,3]thiadiazol-4-ylmethyl)-3-(3,4-dimethyl-benzoyl)-1H-quinolin-4-one] | < 100 |
| O=C(c1ccc(Cl)c(Cl)c1)c1cn(Cc2cccc(Br)n2)c2ccccc2c1=O [Example 100] | < 100 |
| COc1cc(C(=O)c2cn(Cc3cccc(Br)n3)c3ncccc3c2=O)ccc1Cl [Example 172] | < 100 |
| Cc1ccc2c(=O)c(C(=O)c3ccc4c(c3)OCCO4)cn(Cc3cccc(Br)n3)c2n1 [Example 142] | < 100 |
| CN(C)c1ccc(C(=O)c2cn(Cc3cccc(Cl)c3)c3ccccc3c2=O)cn1 [Example 245] | < 100 |
| Cc1ccc(C(=O)c2cn(Cc3cccc(CN(C)C)n3)c3ccccc3c2=O)cc1C [Example 118] | 500 to 20000 |
| Cc1ccc(C(=O)c2cn(Cc3cccnc3)c3cc4c(cc3c2=O)OCCO4)cc1C [Example 12] | 500 to 20000 |
| Cc1cc(C(=O)c2cn(Cc3ccccc3F)c3ccccc3c2=O)cnc1C [Example 40] | < 100 |
| O=C(c1ccc2c(c1)OCCO2)c1cn(Cc2cccc(Br)n2)c2ncccc2c1=O [Example 175] | < 100 |
| Cc1ccc(C(=O)c2cn(Cc3ccccc3-c3cncnc3)c3ccccc3c2=O)cc1C [Example 95] | 500 to 20000 |
| COc1ccc(C(=O)c2cn(Cc3cccc(Br)n3)c3ncccc3c2=O)cc1 [Example 173] | < 100 |
| COc1ccc(C(=O)c2cn(Cc3cccc(Br)n3)c3ccccc3c2=O)nc1C [Example 242] | < 100 |
| CN(C)c1ccc(C(=O)c2cn(Cc3cccc(Br)n3)c3ccccc3c2=O)cc1 [Example 120] | < 100 |
| CNc1cccc(Cn2cc(C(=O)c3cnc(C)c(C)c3)c(=O)c3ccccc32)n1 [Example 99] | 100 to 500 |

| SMILES | IC50 [nM] |
| --- | --- |
| COc1ccc(C(=O)c2cn(Cc3cccc(C#N)n3)c3ccccc3c2=O)cc1C [Example 207] | < 100 |
| O=C(c1cccc(C(F)(F)F)n1)c1cn(Cc2cccc(Br)n2)c2ccccc2c1=O [Example 139] | 500 to 20000 |
| Cc1ccccc1C(=O)c1cn(Cc2cccc(Br)n2)c2ccccc2c1=O [Example 121] | < 100 |
| O=C(c1ccc(N2CCCC2)nc1)c1cn(Cc2cccc(Br)n2)c2ccccc2c1=O [Example 241] | 100 to 500 |
| Cc1ccc(C(=O)c2cn(Cc3cccc(N4CCCCC4)n3)c3ccccc3c2=O)cc1C [Example 68] | < 100 |
| Cc1cccc(Cn2cc(C(=O)c3ccccc3)c(=O)c3ccccc32)c1 [Example 18] | 100 to 500 |
| O=C(c1ccc(C2OCCCO2)cc1)c1cn(Cc2cccc(Br)n2)c2ccccc2c1=O [Example 137] | 100 to 500 |
| COc1ccc(C(=O)c2cn(Cc3cccc(C(F)(F)F)n3)c3ccccc3c2=O)cc1C [Example 202] | < 100 |
| CNc1cccc(Cn2cc(C(=O)c3ccc(C)c(C)c3)c(=O)c3ccccc32)n1 [Example 93] | < 100 |
| O=C(c1ccc(CN2CCOCC2)cc1)c1cn(Cc2cccc(Br)n2)c2ccccc2c1=O [Example 123] | 500 to 20000 |
| C[S+]([O-])c1ccc(C(=O)c2cn(Cc3cccc(Br)n3)c3ccccc3c2=O)cc1 (stereo not shown) [Example 190] | 100 to 500 |
| Cc1ccc(C(=O)c2cn(C(C)c3cccc(Br)n3)c3ccccc3c2=O)cc1C (stereo not shown) [Example 75] | < 100 |
| O=C(c1ccncc1)c1cn(Cc2ccccc2F)c2ccccc2c1=O [Example 15] | 500 to 20000 |
| Cc1ccc(C(=O)c2cn(Cc3cccc(-c4ncco4)n3)c3ccccc3c2=O)cc1C [Example 41] | 100 to 500 |
| Cc1cccnc1C(=O)c1cn(Cc2cccc(Br)n2)c2ccccc2c1=O [Example 149] | 100 to 500 |
| Cc1cccc(Cn2cc(C(=O)c3ccc(C)c(C)c3)c(=O)c3ccc(C)nc32)n1 [Example 107] | < 100 |
| COc1cc(C(=O)c2cn(Cc3cccc(C)n3)c3ncccc3c2=O)ccc1Cl [Example 166] | < 100 |
| Cc1ccc(C(=O)c2cn(Cc3ccccc3F)c3cc4c(cc3c2=O)OCCO4)cc1C [Example 7] | 500 to 20000 |
| COc1ccc(C(=O)c2cn(Cc3cccc(Br)c3)c3ccccc3c2=O)cn1 [Example 239] | 100 to 500 |
| COc1ccc(C(=O)c2cn(Cc3cccc(C#N)n3)c3ccccc3c2=O)cc1F [Example 211] | < 100 |
| O=C(c1ccc(Cl)cc1)c1cn(Cc2cccc(Br)n2)c2ccccc2c1=O [Example 200] | < 100 |
| Cc1ccc(C(=O)c2cn(Cc3ccccn3)c3cc4c(cc3c2=O)OCO4)cc1C [Example 1] | 100 to 500 |
| Cc1ncccc1C(=O)c1cn(Cc2cccc(Br)n2)c2ccccc2c1=O [Example 219] | 100 to 500 |
| Cc1cccc(Cn2cc(C(=O)c3ccc(N(C)C)nc3)c(=O)c3ccccc32)n1 [Example 214] | 100 to 500 |
| Cc1cccc(C(=O)c2cn(Cc3ccccc3F)c3ccccc3c2=O)c1 [Example 21] | < 100 |
| CN(C)C(=O)c1ccccc1C(=O)c1cn(Cc2cccc(Br)n2)c2ccccc2c1=O [Example 168] | < 100 |

| SMILES | IC50 [nM] |
| --- | --- |
| Cc1ccc(C(=O)c2cn(Cc3cccc(Br)n3)c3nc(C)c(C)cc3c2=O)cc1C [Example 159] | < 100 |
| Cc1cccc(Cn2cc(C(=O)c3ccc(C(C)C)cc3)c(=O)c3cccnc32)n1 [Example 165] | < 100 |
| Cc1cccc(Cn2cc(C(=O)c3cnc(C)c(C)c3)c(=O)c3cc(F)ccc32)n1 [Example 124] | < 100 |
| Cc1cccc(Cn2cc(C(=O)c3ccnc(C)c3)c(=O)c3ccccc32)c1 [Example 26] | 500 to 20000 |
| CC(=O)Nc1cccc(Cn2cc(C(=O)c3ccc(C)c(C)c3)c(=O)c3ccccc32)n1 [Example 52] | 100 to 500 |
| O=C(c1ccc(Cl)s1)c1cn(Cc2cccc(Br)n2)c2ccccc2c1=O [Example 187] | < 100 |
| Cc1cccc(Cn2cc(C(=O)c3ccc4c(c3)OCCO4)c(=O)c3ccccc32)n1 [Example 157] | < 100 |
| COc1ccc(C(=O)c2cn(Cc3cccc(Cl)c3)c3ccccc3c2=O)cn1 [Example 246] | < 100 |
| COc1ccc(C(=O)c2cn(Cc3cccc(C)n3)c3ccccc3c2=O)cc1C [Example 156] | < 100 |
| Cc1cc(C(=O)c2cn(Cc3cccc(NC4CC4)n3)c3ccccc3c2=O)cnc1C [Example 110] | 500 to 20000 |
| Cc1ccc(C(=O)c2cn(Cc3cccc(CCl)n3)c3ccccc3c2=O)cc1C [Example 108] | < 100 |
| Cc1cccc(Cn2cc(C(=O)c3cc(C)on3)c(=O)c3ccccc32)n1 [Example 208] | 500 to 20000 |
| Cc1cccc(Cn2cc(C(=O)c3cnccn3)c(=O)c3ccccc32)c1 [Example 62] | 500 to 20000 |
| O=C(c1ccc(Cl)nc1)c1cn(Cc2cccc(Cl)c2)c2ccccc2c1=O [Example 236] | 500 to 20000 |
| Cc1ccc(C(=O)c2cn(C(C)c3cccc(Br)n3)c3ccccc3c2=O)nc1C (stereo not shown) [Example 76] | < 100 |
| Cc1ccc(C(=O)c2cn(Cc3ccccn3)c3cc4c(cc3c2=O)OCCO4)cc1C [Example 11] | 500 to 20000 |
| Cc1cc(C(=O)c2cn(Cc3cccc(N)n3)c3ccccc3c2=O)cnc1C [Example 91] | < 100 |
| Cc1cc(C(=O)c2cn(Cc3cccc(C(F)(F)F)n3)c3ccccc3c2=O)cnc1C [Example 82] | < 100 |
| COc1ccc(C(=O)c2cn(Cc3cccc(C)n3)c3ccc(C)nc3c2=O)cc1C [Example 216] | 500 to 20000 |
| Cc1cc(C(=O)c2cn(Cc3cccc(Br)n3)c3ccc(F)cc3c2=O)cnc1C [Example 67] | < 100 |
| CCN(CC)c1ccc(C(=O)c2cn(Cc3cccc(Br)c3)c3ccccc3c2=O)cn1 [Example 235] | < 100 |
| Cc1cc(C(=O)c2cn(Cc3ccccc3F)c3ccccc3c2=O)ccn1 [Example 24] | 500 to 20000 |
| COc1ccc(C(=O)c2cn(Cc3cccc(Br)n3)c3ccc(C)nc3c2=O)cc1C [Example 215] | < 100 |
| COc1ccc(C(=O)c2cn(Cc3cccc(Br)n3)c3ccccc3c2=O)cc1C1OCCCO1 [Example 136] | < 100 |
| Cc1ccc(C(=O)c2cn(Cc3cccc(C(F)(F)F)n3)c3ccccc3c2=O)cc1C [Example 66] | < 100 |
| Cc1cccc(C(=O)c2cn(Cc3ccccn3)c3ccccc3c2=O)c1 [Example 22] | < 100 |
